According to the NIST ThermoML archive (doi:10.1021/acs.jced.5b00488):
Numbers after ± are expanded uncertainties.

Settings: Crystal; visual observation

## CC(COCc1ccc(O)c2ncccc12)(COCc1ccc(O)c2ncccc12)COCc1ccc(O)c2ncccc12
  Triple point temperature: 468.15 ± 4 K
